Data as given in patent US20190231771A1, “METHODS FOR TREATMENT AND PREVENTION OF OPIOID INDUCED CONSTIPATION USING ORAL COMPOSITIONS OF METHYLNALTREXONE” (Salix Pharmaceuticals, Ltd., priority 2011, published 2019).
“And” between values parts separate entries of the source, which are not always exact repeats. Identical values can stand only once. Like-named read-outs stand apart in the source and are kept apart here.

Experiment: Comparative bioavailability: single oral 150, 300, 450 mg MNTX tablets vs 12 mg SC injection, crossover
Assay type: in vivo, human
Conditions: for t1/2 / half-life: harmonic mean; for bioavailability: arithmetic mean AUC0-∞, read-out: dose-normalized bioavailability of oral MNTX relative to SC MNTX
Text: The oral dosage levels and formulation of MNTX evaluated here were the same as those in a phase 3 study of oral MNTX tablets, with the exception of a nonfunctional coating on the MNTX tablets. […] The pharmacokinetics of the uncoated tablet used in the phase 3 study and the coated tablets used in the current study were compared in a separate study. […] A single-dose pharmacokinetic profile of oral MNTX tablets was also planned for evaluation in this study.
Presented herein is a randomized, open-label, crossover study consisting of 6 dosing sequences, each with 2 dosing periods; the dosing periods were separated by 7 days. All subjects were housed in the clinical research unit from Day −1 through Day 14 and were discharged on Day 15, which concluded their participation in the study. Prior to receiving study drug on Days 1 and 8, the subjects underwent an overnight fast of at least 10 hours, beginning on Days 0 and 7, respectively. In both dosing periods, the subjects received a single oral dose of MNTX tablets (150, 300, or 450 mg) or a single SC injection of MNTX (12 mg). The dosing was conducted in a crossover fashion (e.g., a tablet was administered at one visit and a SC injection was administered at the alternate visit). The strength of oral methylnaltrexone dose (150 mg, 300 mg, or 450 mg) and the dosing sequence (Day 1: oral tablet; Day 8: SC injection vs the alternate dosing order) for each subject were determined by random assignment. Each oral dose was administered with 240 mL of room temperature drinking water. The subjects were instructed to drink all of the water and were told to swallow the tablets whole (e.g., not to chew, divide, or crush them). Blood samples were collected for pharmacokinetic analyses prior to dosing (approximately 1 hour prior) on Day 1, and at 0.25, 0.5, 1, 2, 4, 6, 8, 10, 12, 16, 24, 36, 48, 72, 96, 120, 144, and 168 hours after dosing on Days 1 and 8.
Each tablet contained 150 mg of the active pharmaceutical ingredient, MNTX.
Each injection vial contained 12 mg of the active pharmaceutical ingredient, MNTX, per 0.6 mL of solution (i.e., 20 mg/mL solution).
In this study, all 48 enrolled subjects received study drug in each of the 2 study periods and were included in the safety and pharmacokinetic analyses.
This was a phase 1, randomized, open-label, crossover study consisting of 6 dosing sequences, each with 2 dosing periods. In both dosing periods, the subjects received a single oral dose of MNTX tablets (150, 300, or 450 mg) or a single SC injection of MNTX (12 mg). The dosing was conducted in a crossover fashion (i.e., a tablet was administered at one visit and a SC injection was administered at the alternate visit).
Forty-eight subjects were enrolled and 47 subjects (97.9%) completed the study; one subject discontinued due to personal reasons after receiving study drug in both study periods. The subjects received study drug in accordance with the randomization schedule; specifically, 16 subjects each received a single oral dose of 150, 300, and 450 mg MNTX tablets and all 48 subjects received a single 12 mg SC injection of MNTX.

[1] = MNTX 12 mg SC Injection, single dose, mean
[2] = MNTX 150 mg Tablet vs 12 mg SC Injection
[3] = MNTX 150 mg Tablet, single oral dose, mean
[4] = MNTX 300 mg Tablet, single oral dose, mean
[5] = MNTX 450 mg Tablet, single oral dose, mean

With C[N@+]1(CC2CC2)CC[C@]23c4c5ccc(O)c4O[C@H]2C(=O)CC[C@@]3(O)[C@H]1C5.[Br-] [MNTX, (R)—N-(cyclopropylmethyl) noroxymorphone methobromide] the t1/2 (MNTX 12 mg SC Injection, single dose) was 9.16 h, the “AUC0-∞” value [1] was 269.09 ng·h/mL and the CL/F [1] was 45698.7 mL/h and 45698.71 mL/h. For the same compound, the Cmax [1] was 174.01 ng/mL, the “AUC0-t GMR, tablet/injection × 100” value [2] was 35.61% and the “AUC0-∞ GMR, tablet/injection × 100” value [2] was 36.41%. The “Cmax GMR, tablet/injection × 100” value [2] was 5.779%, the t1/2 (MNTX 150 mg Tablet, single oral dose) was 13.95 h and the “AUC0-∞” value [3] was 106.87 ng·h/mL. The CL/F [3] was 1735472.22 mL/h, the Cmax [3] was 13.22 ng/mL and the “AUC0-t GMR, tablet/injection × 100” value (MNTX 300 mg Tablet vs 12 mg SC Injection) was 74.73%. For the same compound, the t1/2 (MNTX 300 mg Tablet, single oral dose) was 14.16 h, the “AUC0-∞” value [4] was 231.24 ng·h/mL and the CL/F [4] was 1564638.99 mL/h. The Cmax [4] was 26.22 ng/mL, the “AUC0-t GMR, tablet/injection × 100” value (MNTX 450 mg Tablet vs 12 mg SC Injection) was 121.4% and the t1/2 (MNTX 450 mg Tablet, single oral dose) was 16.57 h. The “AUC0-∞” value [5] was 373.32 ng·h/mL, the CL/F [5] was 1664001.3 mL/h and 1664001.28 mL/h and the Cmax [5] was 39.89 ng/mL. The AUC(0-t) (human, plasma, oral, 150 mg, MNTX 150 mg Tablet, read-out: AUC0-t, Geometric LSM) was 94.2 ng·h/mL, the AUC(0-inf) (human, plasma, oral, 150 mg, MNTX 150 mg Tablet, read-out: AUC0-∞, Geometric LSM) was 96.7 ng·h/mL and the Cmax (human, plasma, oral, 150 mg, MNTX 150 mg Tablet, read-out: Cmax, Geometric LSM) was 9.47 ng/mL. The AUC(0-t) (human, plasma, oral, 300 mg, MNTX 300 mg Tablet, read-out: AUC0-t, Geometric LSM) was 198 ng·h/mL, the AUC(0-inf) (human, plasma, oral, 300 mg, MNTX 300 mg Tablet, read-out: AUC0-∞, Geometric LSM) was 200 ng·h/mL and the Cmax (human, plasma, oral, 300 mg, MNTX 300 mg Tablet, read-out: Cmax, Geometric LSM) was 21.8 ng/mL. For the same compound, the AUC(0-t) (human, plasma, oral, 450 mg, MNTX 450 mg Tablet, read-out: AUC0-t, Geometric LSM) was 321 ng·h/mL, the AUC(0-inf) (human, plasma, oral, 450 mg, MNTX 450 mg Tablet, read-out: AUC0-∞, Geometric LSM) was 327 ng·h/mL and the Cmax (human, plasma, oral, 450 mg, MNTX 450 mg Tablet, read-out: Cmax, Geometric LSM) was 32.7 ng/mL. It also gave a half-life (human, plasma, po, 150 mg, MNTX 150 mg Tablet, single oral dose) of 14 h, an AUC(0-t) (human, plasma, po, 150 mg, MNTX 150 mg Tablet, single oral dose, mean, read-out: AUC0-t) of 105 ng·h/mL and an AUC(0-inf) (human, plasma, po, 150 mg, MNTX 150 mg Tablet, single oral dose, mean, read-out: AUC0-∞) of 107 ng·h/mL. It also gave a Cmax (human, plasma, po, 150 mg, MNTX 150 mg Tablet, single oral dose, mean, read-out: Cmax) of 13.2 ng/mL, a half-life (human, plasma, po, 300 mg, MNTX 300 mg Tablet, single oral dose) of 14.2 h and an AUC(0-t) (human, plasma, po, 300 mg, MNTX 300 mg Tablet, single oral dose, mean, read-out: AUC0-t) of 229 ng·h/mL. For the same compound, the AUC(0-inf) (human, plasma, po, 300 mg, MNTX 300 mg Tablet, single oral dose, mean, read-out: AUC0-∞) was 231 ng·h/mL, the Cmax (human, plasma, po, 300 mg, MNTX 300 mg Tablet, single oral dose, mean, read-out: Cmax) was 26.2 ng/mL and the half-life (human, plasma, po, 450 mg, MNTX 450 mg Tablet, single oral dose) was 16.6 h. For the same compound, the AUC(0-t) (human, plasma, po, 450 mg, MNTX 450 mg Tablet, single oral dose, mean, read-out: AUC0-t) was 367 ng·h/mL, the AUC(0-inf) (human, plasma, po, 450 mg, MNTX 450 mg Tablet, single oral dose, mean, read-out: AUC0-∞) was 373 ng·h/mL and the Cmax (human, plasma, po, 450 mg, MNTX 450 mg Tablet, single oral dose, mean, read-out: Cmax) was 39.9 ng/mL. For the same compound, the half-life (human, plasma, sc, 12 mg, MNTX 12 mg SC Injection, single dose) was 9.2 h, the AUC(0-t) (human, plasma, sc, 12 mg, MNTX 12 mg SC Injection, single dose, mean, read-out: AUC0-t) was 268 ng·h/mL and the AUC(0-inf) (human, plasma, sc, 12 mg, MNTX 12 mg SC Injection, single dose, mean, read-out: AUC0-∞) was 269 ng·h/mL. The Cmax (human, plasma, sc, 12 mg, MNTX 12 mg SC Injection, single dose, mean, read-out: Cmax) was 174 ng/mL, the AUC(0-t) (human, plasma, sc, 12 mg, MNTX 12 mg SC Injection, read-out: AUC0-t, Geometric LSM) was 264 ng·h/mL and the AUC(0-inf) (human, plasma, sc, 12 mg, MNTX 12 mg SC Injection, read-out: AUC0-∞, Geometric LSM) was 266 ng·h/mL. For the same compound, the Cmax (human, plasma, sc, 12 mg, MNTX 12 mg SC Injection, read-out: Cmax, Geometric LSM) was 164 ng/mL, the Tmax (human, plasma, 12 mg SC injection, read-out: median Tmax (converted)) was 0.25 h and the Tmax (human, plasma, MNTX 150 mg Tablet, single oral dose, median, read-out: Tmax) was 2 h. For the same compound, the Tmax (human, plasma, MNTX 300 mg Tablet, single oral dose, median, read-out: Tmax) was 1.5 h, the Tmax (human, plasma, MNTX 450 mg Tablet, single oral dose, median, read-out: Tmax) was 2 h and the bioavailability (human, plasma, oral 150 mg vs 12 mg SC) was 3.2%. The bioavailability (human, plasma, oral 300 mg vs 12 mg SC) was 3.4%, the bioavailability (human, plasma, oral 450 mg vs 12 mg SC) was 3.7% and the Tmax (human, plasma, oral MNTX tablets 150 mg to 450 mg, read-out: median Tmax, range over the oral doses) was 1.5 to 2 h. For the same compound, the tolerability (oral 150, 300, 450 mg tablets and 12 mg SC injection, healthy volunteers) was “well tolerated”, the “Tmax shorter following SC MNTX 12 mg versus oral MNTX 150, 300, and 450 mg” value (single doses) was 6- to 8 fold and the “mean AUC0-∞ following SC MNTX 12 mg higher versus oral MNTX 300 mg” value (single doses) was 16%. The “mean AUC0-∞ following SC MNTX 12 mg lower versus oral MNTX 450 mg” value (single doses) was 28% and the “t1/2 shorter following SC MNTX 12 mg versus oral MNTX 150, 300, and 450 mg” value (single doses) was 5 to 7 h.
